Data published in ChEMBL document CHEMBL5052842, “Pharmaceutical compounds and their use as inhibitors of ubiquitin specific protease 19 (usp19)” (2020).

Molecular target: T1, Ubiquitin carboxyl-terminal hydrolase 19 (Homo sapiens, UniProt O94966)
T1 sequence (O94966 whole entry): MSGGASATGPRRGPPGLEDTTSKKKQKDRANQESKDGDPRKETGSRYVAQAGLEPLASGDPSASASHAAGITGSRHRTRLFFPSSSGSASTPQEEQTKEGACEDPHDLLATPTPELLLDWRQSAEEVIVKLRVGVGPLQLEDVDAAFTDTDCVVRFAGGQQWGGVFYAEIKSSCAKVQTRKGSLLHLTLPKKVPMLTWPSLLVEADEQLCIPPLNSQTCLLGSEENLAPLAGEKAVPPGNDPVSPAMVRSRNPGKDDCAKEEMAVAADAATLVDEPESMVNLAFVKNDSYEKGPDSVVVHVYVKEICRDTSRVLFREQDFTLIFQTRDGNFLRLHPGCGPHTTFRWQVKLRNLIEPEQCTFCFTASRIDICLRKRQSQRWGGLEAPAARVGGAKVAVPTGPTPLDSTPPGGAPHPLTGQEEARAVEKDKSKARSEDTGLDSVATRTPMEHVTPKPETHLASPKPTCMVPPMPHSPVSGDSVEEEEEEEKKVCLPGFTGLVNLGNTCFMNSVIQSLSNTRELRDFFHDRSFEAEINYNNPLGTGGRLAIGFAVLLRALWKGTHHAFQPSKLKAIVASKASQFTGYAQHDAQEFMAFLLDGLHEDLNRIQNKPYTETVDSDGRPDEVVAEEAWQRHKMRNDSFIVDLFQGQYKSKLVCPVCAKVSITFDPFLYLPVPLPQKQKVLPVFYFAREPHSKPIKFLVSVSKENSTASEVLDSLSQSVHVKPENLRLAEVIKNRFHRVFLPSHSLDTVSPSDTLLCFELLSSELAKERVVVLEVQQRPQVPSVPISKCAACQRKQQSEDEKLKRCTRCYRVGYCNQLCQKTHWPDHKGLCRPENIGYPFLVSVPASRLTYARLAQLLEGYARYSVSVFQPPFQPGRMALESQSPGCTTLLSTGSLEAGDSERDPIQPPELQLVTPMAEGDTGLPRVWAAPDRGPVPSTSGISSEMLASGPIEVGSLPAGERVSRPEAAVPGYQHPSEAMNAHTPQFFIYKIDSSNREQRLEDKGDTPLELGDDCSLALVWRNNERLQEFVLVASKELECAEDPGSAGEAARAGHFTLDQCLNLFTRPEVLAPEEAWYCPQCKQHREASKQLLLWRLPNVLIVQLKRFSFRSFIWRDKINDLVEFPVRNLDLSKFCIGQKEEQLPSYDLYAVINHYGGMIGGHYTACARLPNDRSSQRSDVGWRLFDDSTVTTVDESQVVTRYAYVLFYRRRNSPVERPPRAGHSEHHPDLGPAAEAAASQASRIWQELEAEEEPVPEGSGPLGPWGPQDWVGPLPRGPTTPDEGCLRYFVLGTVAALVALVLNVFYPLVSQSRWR
Assay: Inhibition of C-terminal His6-tagged recombinant human USP19 using iso-peptide ubiquitin-Lys-TAMRA as substrate incubated for 30 mins and measured after 90 mins by fluorescent polarization assay

Compound | IC50 [nM]
CC1(C)CN(C(=O)N2CCOC[C@H]2c2ccccc2)CC[C@@]1(O)Cn1cnc(-c2ccccc2)cc1=O | < 500
O=C(N1CC[C@@](O)(Cn2cnc(-c3ccccc3)cc2=O)C2(CCCC2)C1)N1CCNC[C@H]1c1cc(F)ccc1F | < 500
Cn1cc(-c2ccn(C[C@]3(O)CCN(C(=O)N4CCNC[C@H]4c4ccccc4)CC34CCCC4)c(=O)c2)cn1 | < 500
C[C@H](CC1CCCCC1)C(=O)N1CCC(O)(Cn2cc(S(C)(=N)=O)c(-c3ccccc3)cc2=O)C2(CCCC2)C1 (some centres undefined) | < 500
O=C(N1CC[C@@](O)(Cn2cnc(-c3cccc(F)c3)cc2=O)C2(CCCC2)C1)N1CCNC[C@H]1c1ccccc1 | < 500
O=C(N1CC[C@@](O)(Cn2cnc(N3CCCC3)cc2=O)C2(CCCC2)C1)N1CCOC[C@H]1c1ccccc1 | < 500
O=C(N1CC[C@@](O)(Cn2cnc(-c3ccccc3)cc2=O)C2(CCCC2)C1)N1CCS(=O)(=O)CC1c1ccccc1 (some centres undefined) | < 500
O=C(N1CC[C@@](O)(Cn2cnc(-c3ccccc3)cc2=O)C2(CCCC2)C1)N1CCNC[C@H]1c1cccc(F)c1F | < 500
O=C(N1CC[C@@](O)(Cn2cnc(-c3ccccc3F)cc2=O)C2(CCCC2)C1)N1CCNC[C@H]1c1cc(F)cc(F)c1 | < 500
O=C(N1CCC(O)(Cn2cnc(-c3ccccc3)cc2=O)C2(CCOCC2)C1)N1CCOC[C@H]1c1ccccc1 (some centres undefined) | < 500
N=S1(=O)CCN(C(=O)N2CC[C@@](O)(Cn3cnc(-c4ccccc4)cc3=O)C3(CCCC3)C2)[C@H](c2cc(F)ccc2F)C1 (some centres undefined) | < 500
C[S+]([O-])c1cn(CC2(O)CCN(C(=O)N3CCNC[C@H]3c3ccccc3)CC23CCCC3)c(=O)cc1-c1ccccc1 (some centres undefined) | < 500
O=C(N1CC[C@@](O)(Cn2cnc(C3CC3)cc2=O)C2(CCCC2)C1)N1CCNC[C@H]1c1cccc(F)c1 | < 500
COc1cccc(F)c1-c1cc(=O)n(C[C@]2(O)CCN(C(=O)N3CCNC[C@H]3c3ccccc3)CC23CCCC3)cn1 | < 500
O=C(N1CCC(O)(Cn2cnc(-c3ccccc3)cc2=O)C2(CCCCC2)C1)N1CCNC[C@H]1c1ccccc1 (some centres undefined) | < 500
CSc1ncc2c(=O)n(CC3(O)CCN(C(=O)[C@H](C)CC4CCCCC4)CC34CCCC4)n(C)c2n1 (some centres undefined) | < 500
O=C(N1CCC(O)(Cn2cnc(-c3ccccc3)cc2=O)C2(CCC2)C1)N1CCNC[C@H]1c1ccccc1 (some centres undefined) | < 500
O=C(NCc1cccc(F)c1)N1CC[C@@](O)(Cn2cnc(-c3ccccc3)cc2=O)C2(CCCC2)C1 | < 500
O=C(N1CCC(O)(Cn2cnc3cc(F)c(F)cc3c2=O)C2(CCCC2)C1)N1CCOC[C@H]1c1ccccc1 (some centres undefined) | < 500
C[C@H](CC1CCCCC1)C(=O)N1CCC(O)(Cn2cc([S+](C)[O-])c(-c3ccccc3)cc2=O)C2(CCCC2)C1 (some centres undefined) | < 500

Compound | IC50 [nM]
C[C@H](CC1CCCCC1)C(=O)N1CCC(O)(CN2CCOCC2=O)C2(CCCC2)C1 (some centres undefined) | < 500
Cn1cc(-c2cc(=O)n(C[C@]3(O)CCN(C(=O)N4CCOC[C@H]4c4ccc(F)cc4)CC34CCCC4)cn2)cn1 | < 500
C[C@H](CC1CCCCC1)C(=O)N1CCC(O)(CN2CCN(c3ccccc3)CC2=O)C2(CCCC2)C1 (some centres undefined) | < 500
COc1c(F)cccc1-c1cc(=O)n(C[C@]2(O)CCN(C(=O)N3CCNC[C@H]3c3ccccc3)CC23CCCC3)cn1 | < 500
COc1cc(=O)n(C[C@]2(O)CCN(C(=O)N3CCNC[C@H]3c3ccccc3)CC23CCCC3)cn1 | < 500
O=C(NCc1ccccc1)N1CCC(O)(Cn2ccc(-c3ccccc3)cc2=O)C2(CCCC2)C1 (centres undefined) | < 500
C[C@H](CC1CCCCC1)C(=O)N1CCC(O)(Cn2cc(C(=O)N(C)C)ncc2=O)C2(CCCC2)C1 (some centres undefined) | < 500
O=C(N1CC[C@@](O)(Cn2cnc(-c3ccc(Cl)cc3)cc2=O)C2(CCCC2)C1)N1CCNC[C@H]1c1ccccc1 | < 500
O=C(N1CC[C@@](O)(Cn2ccc3ncncc3c2=O)C2(CCCC2)C1)N1CCNC[C@H]1c1ccccc1 | < 500
CSc1cn(CC2(O)CCN(C(=O)[C@H](C)CC3CCCCC3)CC23CCCC3)c(=O)cc1-c1ccccc1 (some centres undefined) | < 500
C[C@H](CC1CCCCC1)C(=O)N1CCC(O)(Cn2cc(N=S(C)(C)=O)c(-c3ccccc3)cc2=O)C2(CCCC2)C1 (some centres undefined) | < 500
O=C(N1CC[C@@](O)(Cn2cnc(-c3ccccc3)cc2=O)C2(CCCC2)C1)N1CCNCC1c1cccs1 (some centres undefined) | < 500
O=C(N1CC[C@@](O)(Cn2cnc(N3CCCC(F)(F)C3)cc2=O)C2(CCCC2)C1)N1CCNC[C@H]1c1ccccc1 | < 500
CCn1ncc2c(=O)n(CC3(O)CCN(C(=O)[C@H](C)CC4CCCCC4)CC34CCCC4)cnc21 (some centres undefined) | < 500
O=C(N1CC[C@@](O)(Cn2cnc(-c3ccccc3)cc2=O)C2(CCOCC2)C1)N1CCNC[C@H]1c1ccccc1 | < 500
O=C(N1CCC(O)(Cn2cnc3ccc(F)cc3c2=O)C2(CCCC2)C1)N1CCOC[C@H]1c1ccccc1 (some centres undefined) | < 500
Cn1cc(-c2cc(=O)n(C[C@]3(O)CCN(C(=O)N4CCOC[C@H]4c4ccccc4)CC34CCCC4)cn2)cn1 | < 500
C[C@H](CC(F)(F)F)C(=O)N1CCC(O)(Cn2cc(N=S(C)(C)=O)c(-c3ccccc3)cc2=O)C2(CCCC2)C1 (some centres undefined) | < 500
COc1ccccc1-c1cc(=O)n(C[C@]2(O)CCN(C(=O)N3CCNC[C@H]3c3cccc(F)c3)CC23CCCC3)cn1 | < 500
O=C(N1CC[C@@](O)(Cn2cnc(-c3ccccc3)cc2=O)C2(CCCC2)C1)N1CCSC[C@H]1c1cc(F)ccc1F | < 500

Compound | IC50 [nM]
CN(C)C(=O)C1CN(C[C@]2(O)CCN(C(=O)[C@H](CO)CC3CCCCC3)CC2(C)C)C(=O)CC1c1ccccc1 (some centres undefined) | < 500
C[C@H](CC1CCCCC1)C(=O)N1CCC(O)(Cn2ccc3ccncc3c2=O)C2(CCCC2)C1 (some centres undefined) | < 500
O=C(N1CC[C@@](O)(Cn2cnc(-c3ccccc3)cc2=O)C2(CCCC2)C1)N1CCSCC1c1ccccc1 (some centres undefined) | < 500
O=C(N1CC[C@@](O)(Cn2ccc(-c3ccccc3)cc2=O)C2(CCCC2)C1)N1CCNC[C@H]1c1ccccc1 | < 500
O=C(N1CC[C@@](O)(Cn2cnc(-c3ccccc3F)cc2=O)C2(CCCC2)C1)N1CCNC[C@H]1c1ccccc1 | < 500
O=C(N1CC[C@@](O)(Cn2cnc(-c3ccccc3)cc2=O)C2(CCCC2)C1)N1CCNC[C@H]1c1ccccc1 | < 500
CN(C)C(=O)c1cn(CC2(O)CCN(C(=O)NCc3ccccc3)CC23CCCC3)c(=O)cc1-c1ccccc1 (centres undefined) | < 500
O=C(N[C@H](c1ccccc1)C(F)(F)F)N1CC[C@@](O)(Cn2ccc(-c3ccccc3)cc2=O)C2(CCCC2)C1 | < 500
O=C(N1CC[C@@](O)(Cn2cnc(-c3ccccc3C(F)(F)F)cc2=O)C2(CCCC2)C1)N1CCNC[C@H]1c1ccccc1 | < 500
O=C(N1CC[C@@](O)(Cn2cnc(-c3ccccc3)cc2=O)C2(CCCC2)C1)N1CCN(CC(F)(F)F)C[C@H]1c1ccccc1 | < 500
Cn1nccc1-c1ccn(C[C@]2(O)CCN(C(=O)N3CCNC[C@H]3c3ccccc3)CC23CCCC3)c(=O)c1 | < 500
COc1ccc2c(=O)n(CC3(O)CCN(C(=O)[C@H](C)CC4CCCCC4)CC34CCCC4)ccc2c1 (some centres undefined) | ≤ 5000
O=C(NCc1ccc(F)c(F)c1)N1CC[C@@](O)(Cn2cnc(-c3ccccc3)cc2=O)C2(CCCC2)C1 | < 500
O=C(N1CC[C@@](O)(Cn2cnc(-c3ccc4c(c3)CCO4)cc2=O)C2(CCCC2)C1)N1CCNC[C@H]1c1ccccc1 | < 500
CN(C)c1cc(=O)n(C[C@]2(O)CCN(C(=O)N3CCOC[C@H]3c3ccccc3)CC23CCCC3)cn1 | < 500
O=C(N1CC[C@@](O)(Cn2cnc(-c3ccccc3OC(F)(F)F)cc2=O)C2(CCCC2)C1)N1CCNC[C@H]1c1ccccc1 | < 500
O=C(N1CCC(O)(Cn2cnc(-c3ccccc3)cc2=O)C2(CCC2)C1)N1CCOC[C@H]1c1ccccc1 (some centres undefined) | < 500
O=C(N1CCC(O)(Cn2ccc3ccncc3c2=O)C2(CCCC2)C1)N1CCNC[C@H]1c1ccccc1 (some centres undefined) | < 500
O=C(N1CC[C@@](O)(Cn2cnc(-c3cccs3)cc2=O)C2(CCCC2)C1)N1CCNC[C@H]1c1ccccc1 | < 500
